Measured values as given in patent US10590113B2, “6-hydroxy-4-oxo-1,4-dihydropyrimidine-5-carboxamides as APJ agonists” (priority 2016, dated 2020).

Biological target: T1, human APJ receptor (Homo sapiens, UniProt P35414)
T1 construct: expressed in transfected cells; host or cells: HEK293
T1 sequence (P35414 1-380): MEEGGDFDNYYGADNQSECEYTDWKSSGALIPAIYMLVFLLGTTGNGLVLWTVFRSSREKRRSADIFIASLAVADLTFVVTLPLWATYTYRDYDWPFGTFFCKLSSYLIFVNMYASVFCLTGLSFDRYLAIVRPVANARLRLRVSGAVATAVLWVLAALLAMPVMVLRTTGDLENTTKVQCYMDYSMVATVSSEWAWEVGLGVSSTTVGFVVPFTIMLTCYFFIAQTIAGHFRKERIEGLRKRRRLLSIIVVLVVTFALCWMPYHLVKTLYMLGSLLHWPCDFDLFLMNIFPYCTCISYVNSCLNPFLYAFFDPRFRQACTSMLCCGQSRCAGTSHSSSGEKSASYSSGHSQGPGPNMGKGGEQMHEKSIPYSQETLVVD
Test: Intracellular cAMP Accumulation Assay (APJ hcAMP, HTRF)
Type: cell-based
Conditions: not given
Description: Intracellular cAMP Accumulation Assay
HEK293 cells stably expressing human APJ receptor were used to assess the activity of compounds. Cultured cells were detached and resuspended in the cAMP
Homogeneous Time-Resolved Fluorescence (HTRF) assay buffer (Cisbio cat; #62AM4PEJ). The assay was performed in 384-well assay plates (Perkin-Elmer; cat #6008289) according to assay protocol provided by the manufacturer. Serial dilutions of a compound together with assay buffer containing […] IBMX and 2 μM forskolin were added to each well containing 5,000 cells and incubated for 30 minutes at room temperature. Subsequently, cAMP D2 reagent was added in the lysis buffer followed by the EuK antibody (Cisbio; cat #62AM4PEJ) and incubated for 60 min. The fluorescence emission ratio was measured using fluorometer. The intracellular cAMP concentrations (compound-stimulated inhibition of forskolin-mediated cAMP production) were calculated by extrapolation from a standard curve using known cAMP concentrations. The EC50 values were obtained by fitting the data to a sigmoidal concentration-response curve with variable slope.
The EC50 value of each compound is presented at the end of the example description.
The biological activity of the exemplified compounds of this invention determined by the assay described above is shown at the end of each example.

EC50 [nM] | SMILES
0.01 to 10 | CCCCc1nc(=O)c(C(=O)N2CCC(c3ccc(Cl)cc3)C2)c(O)n1-c1c(OC)cccc1OC (single isomer, unassigned) [Example 46, 2-butyl-5-[3-(4-chlorophenyl)pyrrolidine-1-carbonyl]-1-(2,6-dimethoxyphenyl)-6-hydroxy-1,4-dihydropyrimidin-4-one]
0.01 to 10 | CCCCc1nc(=O)c(C(=O)N2CCC(c3ccncc3)C2)c(O)n1-c1c(OC)cccc1OC (single isomer, unassigned) [Example 47, 2-butyl-1-(2,6-dimethoxyphenyl)-6-hydroxy-5-[3-(pyridin-4-yl)pyrrolidine-1-carbonyl]-1,4-dihydropyrimidin-4-one]

SMILES | EC50 [nM]
CCCCc1nc(=O)c(C(=O)N2CCC(c3ccc(Cl)cn3)C2)c(O)n1-c1c(OC)cccc1OC (single isomer, unassigned) [Example 41, 2-butyl-5-(3-(5-chloropyridin-2-yl)pyrrolidine-1-carbonyl)-1-(2,6-dimethoxyphenyl)-6-hydroxypyrimidin-4(1H)-one] | 0.01 to 10

Same assay, conditions: HEK293 cells stably expressing human APJ receptor; inhibition of forskolin-mediated cAMP production; read-out: Human APJ cAMP EC50 potency range

EC50 [nM] | SMILES
0.01 to 10 | C=CCCc1nc(O)c(C(=O)N2CC[C@H](c3ccccc3)C2)c(=O)n1-c1c(C)cccc1OC (single isomer, unassigned) [Example 8]
0.01 to 10 | C=CCCc1nc(O)c(C(=O)N2CC[C@H](c3ccccc3)C2)c(=O)n1-c1c(C)cccc1OC (single isomer, unassigned) [Example 8″]

Same assay, conditions: human APJ, intracellular cAMP accumulation; read-out: hAPJ cAMP EC50 Potency range

SMILES | EC50 [nM]
CCCCc1nc(=O)c(C(=O)N2CCC(Cc3ccccc3)C2)c(O)n1-c1c(OC)cccc1OC (racemic) [Example 73, 5-(3-benzylpyrrolidine-1-carbonyl)-2-butyl-1-(2,6-dimethoxyphenyl)-6-hydroxy-1,4-dihydropyrimidin-4-one] | 0.01 to 10
CCCCc1nc(O)c(C(=O)N2CCC(c3ccc(F)cc3)C2)c(=O)n1-c1c(CC)cccc1CC (racemic) [Example 89, 2-butyl-3-(2,6-diethylphenyl)-5-[3-(4-fluorophenyl)pyrrolidine-1-carbonyl]-6-hydroxy-3,4-dihydropyrimidin-4-one] | 0.01 to 10
CCc1cccc(CC)c1-n1c(COC(C)C)nc(=O)c(C(=O)N2CCC(c3ccccn3)C2)c1O (single isomer, unassigned) [Example 18, 1-(2,6-diethylphenyl)-6-hydroxy-2-(isopropoxymethyl)-5-(3-(pyridin-2-yl)pyrrolidine-1-carbonyl)pyrimidin-4(1H)-one] | 0.01 to 10
CCc1cccc(CC)c1-n1c(COC(C)C)nc(=O)c(C(=O)N2CCC(c3ccccc3F)C2)c1O (single isomer, unassigned) [Example 25, 1-(2,6-diethylphenyl)-5-(3-(2-fluorophenyl)pyrrolidine-1-carbonyl)-6-hydroxy-2-(isopropoxymethyl) pyrimidin-4(1H)-one] | 0.01 to 10
COc1cccc(OC)c1-n1c(COC(C)(C)C)nc(=O)c(C(=O)N2CCC(c3ccccc3Cl)C2)c1O (single isomer, unassigned) [Example 42, 2-[(tert-butoxy)methyl]-5-[3-(2-chlorophenyl)pyrrolidine-1-carbonyl]-1-(2,6-dimethoxyphenyl)-6-hydroxy-1,4-dihydropyrimidin-4-one] | 0.01 to 10
COc1cccc(OC)c1-n1c(COC(C)(C)C)nc(=O)c(C(=O)N2CCC(c3ccccc3F)C2)c1O (single isomer, unassigned) [Example 50, 2-[(tert-butoxy)methyl]-1-(2,6-dimethoxyphenyl)-5-[3-(2-fluorophenyl)pyrrolidine-1-carbonyl]-6-hydroxy-1,4-dihydropyrimidin-4-one] | 0.01 to 10
CCCCc1nc(=O)c(C(=O)N2CCC(c3ccccc3F)C2)c(O)n1-c1c(OC)cccc1OC (single isomer, unassigned) [Example 52, 2-butyl-1-(2,6-dimethoxyphenyl)-5-[3-(2-fluorophenyl)pyrrolidine-1-carbonyl]-6-hydroxy-1,4-dihydropyrimidin-4-one] | 0.01 to 10

The next lines start with the values.

EC50 [nM] | SMILES
0.01 to 10 | CCOCc1nc(=O)c(C(=O)N2CCC(c3cccc(Cl)c3)C2)c(O)n1-c1c(OC)cccc1OC (racemic) [Example 26, 5-(3-(3-chlorophenyl)pyrrolidine-1-carbonyl)-1-(2,6-dimethoxyphenyl)-2-(ethoxymethyl)-6-hydroxypyrimidin-4(1H)-one]
0.01 to 10 | COc1cccc(OC)c1-n1c(CC2CC2)nc(=O)c(C(=O)N2CCC(c3cccc(Cl)c3)C2)c1O (racemic) [Example 28, 5-(3-(3-chlorophenyl)pyrrolidine-1-carbonyl)-2-(cyclopropylmethyl)-1-(2,6-dimethoxyphenyl)-6-hydroxypyrimidin-4(1H)-one]
0.01 to 10 | COc1cccc(OC)c1-n1c(COC2CC2)nc(=O)c(C(=O)N2CCC(c3ccccc3F)C2)c1O (single isomer, unassigned) [Example 10, 2-(cyclopropoxymethyl)-1-(2,6-dimethoxyphenyl)-5-(3-(2-fluorophenyl)pyrrolidine-1-carbonyl)-6-hydroxypyrimidin-4(1H)-one]
0.01 to 10 | COc1cccc(OC)c1-n1c(COC2CC2)nc(=O)c(C(=O)N2CCC(c3ccccc3F)C2)c1O (single isomer, unassigned) [Example 13, 2-(cyclopropoxymethyl)-1-(2,6-dimethoxyphenyl)-5-(3-(2-fluorophenyl)pyrrolidine-1-carbonyl)-6-hydroxy-pyrimidin-4(1H)-one]
0.01 to 10 | COc1cccc(OC)c1-n1c(COC2CC2)nc(=O)c(C(=O)N2CCC(c3ccccc3C)C2)c1O (single isomer, unassigned) [Example 19, 2-(cyclopropoxymethyl)-1-(2,6-dimethoxyphenyl)-6-hydroxy-5-(3-(o-tolyl)pyrrolidine-1-carbonyl)pyrimidin-4(1H)-one]
0.01 to 10 | COc1cccc(OC)c1-n1c(COC2CC2)nc(=O)c(C(=O)N2CCC(c3ccc(Cl)cc3)C2)c1O (single isomer, unassigned) [Example 21, 5-(3-(4-chlorophenyl)pyrrolidine-1-carbonyl)-2-(cyclopropoxymethyl)-1-(2,6-dimethoxyphenyl)-6-hydroxypyrimidin-4(1H)-one]
0.01 to 10 | COc1cccc(OC)c1-n1c(COC2CC2)nc(=O)c(C(=O)N2CCC(c3ccccc3Cl)C2)c1O (single isomer, unassigned) [Example 22, 5-(3-(2-chlorophenyl)pyrrolidine-1-carbonyl)-2-(cyclopropoxymethyl)-1-(2,6-dimethoxyphenyl)-6-hydroxypyrimidin-4(1H)-one]
0.01 to 10 | CCCCc1nc(=O)c(C(=O)N2CCC(c3ccccc3Cl)C2)c(O)n1-c1c(OC)cccc1OC (single isomer, unassigned) [Example 43, 2-butyl-5-[3-(2-chlorophenyl)pyrrolidine-1-carbonyl]-1-(2,6-dimethoxyphenyl)-6-hydroxy-1,4-dihydropyrimidin-4-one]
0.01 to 10 | CCCCc1nc(=O)c(C(=O)N2CCC(c3ccccc3F)C2)c(O)n1-c1c(OC)cccc1OC (single isomer, unassigned) [Example 53, 2-butyl-1-(2,6-dimethoxyphenyl)-5-[3-(2-fluorophenyl)pyrrolidine-1-carbonyl]-6-hydroxy-1,4-dihydropyrimidin-4-one]
0.01 to 10 | CCOCc1nc(=O)c(C(=O)N2CCC(c3ccccn3)C2)c(O)n1-c1c(OC)cccc1OC (single isomer, unassigned) [Example 54, 1-(2,6-dimethoxyphenyl)-2-(ethoxymethyl)-6-hydroxy-5-[3-(pyridin-2-yl)pyrrolidine-1-carbonyl]-1,4-dihydropyrimidin-4-one]
0.01 to 10 | CCOCc1nc(=O)c(C(=O)N2CCC(c3ccccn3)C2)c(O)n1-c1c(OC)cccc1OC (single isomer, unassigned) [Example 55, 1-(2,6-dimethoxyphenyl)-2-(ethoxymethyl)-6-hydroxy-5-[3-(pyridin-2-yl)pyrrolidine-1-carbonyl]-1,4-dihydropyrimidin-4-one]

Same assay, conditions: read-out: hAPJ cAMP EC50 Potency range; human APJ, intracellular cAMP accumulation

EC50 [nM] | SMILES
0.01 to 10 | CCCCc1nc(=O)c(C(=O)N2CCC(c3ccc(Cl)cc3)C2)c(O)n1-c1c(OC)cccc1OC (single isomer, unassigned) [Example 45, 2-butyl-5-[3-(4-chlorophenyl)pyrrolidine-1-carbonyl]-1-(2,6-dimethoxyphenyl)-6-hydroxy-1,4-dihydropyrimidin-4-one]
0.01 to 10 | CCCCc1nc(=O)c(C(=O)N2CCC(c3ccncc3)C2)c(O)n1-c1c(OC)cccc1OC (single isomer, unassigned) [Example 48, 2-butyl-1-(2,6-dimethoxyphenyl)-6-hydroxy-5-[3-(pyridin-4-yl)pyrrolidine-1-carbonyl]-1,4-dihydropyrimidin-4-one]
